Experimental findings from BindingDB's records for doi:10.1016/j.ejmech.2020.113033 (Leiden University, 2021) are described below.

The first series can be described thus: Displacement of [3H]dofetilide from human ERG stably expressed in HEK293 cell membranes assessed as unlabelled dofetilide IC50 at 3 uM measured after 60 mins by microbeta liquid scintillation counting method (Rvb = 9.1 to 11.7 nM). (In general: In a radioligand displacement assay an active substance lowers the binding of a labelled ligand.)
`O=C(COc1ccc(C(=O)c2cc(Cl)ccc2Br)cc1)Nc1cccnc1`: the concentration for half-maximal inhibition (IC50) was 35 nM.

On to `Cc1cc(NC(=O)COc2ccc(C(=O)c3cc(Cl)ccc3Br)cc2)ccn1`, for which the IC50 stood at 60 nM.

Turning to `N#Cc1cccc(NC(=O)COc2ccc(C(=O)c3cc(Cl)ccc3Br)cc2)c1F`, the IC50 was 13 nM.

Regarding `O=C(COc1ccc(C(=O)c2cc(Cl)ccc2Br)cc1)Nc1cccc(C(=O)NC2CC2)c1`, the half-maximal inhibitory concentration (IC50) is 11 nM.

`O=C(COc1ccc(C(=O)c2cc(Cl)ccc2Br)cc1)Nc1ccc(Cl)c(C(=O)NCC2CC2)c1`: the IC50 is 18 nM.

The nature of the next series: Displacement of [3H]dofetilide from human ERG stably expressed in HEK293 cell membranes assessed as unlabelled dofetilide IC50 at 1 uM measured after 60 mins by microbeta liquid scintillation counting method (Rvb = 9.1 to 11.7 nM).
With `O=C(COc1ccc(C(=O)c2cc(Cl)ccc2Br)cc1)Nc1cncc(C(=O)NCC2CC2)c1`, the IC50 was 20 nM.

A further series can be described thus: Displacement of [3H]dofetilide from human ERG stably expressed in HEK293 cell membranes assessed as unlabelled dofetilide IC50 at 10 uM measured after 60 mins by microbeta liquid scintillation counting method (Rvb = 9.1 to 11.7 nM).
As for `O=C(COc1ccc(C(=O)c2ccccc2Br)cc1)Nc1cccnc1`, the IC50 was determined as 36 nM.

Turning to `O=C(COc1ccc(C(=O)c2cc(Cl)ccc2Br)cc1)Nc1ccnc(F)c1`, the 50% inhibitory concentration (IC50) was determined as 18 nM.

As to `N#Cc1cc(NC(=O)COc2ccc(C(=O)c3cc(Cl)ccc3Br)cc2)ccc1F`, the IC50 stood at 70 nM.

Turning to `CNC(=O)c1cccc(NC(=O)COc2ccc(C(=O)c3cc(Cl)ccc3Br)cc2)c1`, the 50% inhibitory concentration (IC50) is 22 nM.

Consider `O=C(COc1ccc(C(=O)c2cc(Cl)ccc2Br)cc1)Nc1cccc(C(=O)NCC2CC2)c1`, for which the IC50 was determined as 26 nM.

A further series is described as follows: Displacement of [3H]dofetilide from human ERG stably expressed in HEK293 cell membranes assessed as unlabelled dofetilide IC50 at 0.5 uM measured after 60 mins by microbeta liquid scintillation counting method (Rvb = 9.1 to 11.7 nM).
In the case of `O=C(COc1ccc(C(=O)c2cc(Cl)ccc2Br)cc1)Nc1ccnc(C(=O)NCC2CC2)c1`, the IC50 was found to be 18 nM.

Usually IC50 stands for the concentration needed to halve the response being measured.
